Patent publication US10968222B2, “2-azabicyclo hexane JAK inhibitor compound” (THERAVANCE BIOPHARMA R&D IP, LLC, priority 2018, dated 2021)

How the values were obtained:
CSNK1D = target: T1, CSNK1D (Homo sapiens, UniProt P48730); experiment: Kinome screen, CSNK1D; type: binding; settings: screened at 1 μM
T1 construct: made in house; host or cells: E. coli BL21-derived host (T7 phage) or HEK-293 cells
Description: (§1) Compounds 1 and C-1 were screened against other kinases to evaluate their selectivity profile.
(§2) Kinase-tagged T7 phage strains were grown in parallel in 24-well blocks in an E. coli host derived from the BL21 strain. E. coli were grown to log-phase and infected with T7 phage from a frozen stock (multiplicity of infection=0.4) and incubated with shaking at 32° C. until lysis (90-150 minutes). The lysates were centrifuged (6,000×g) and filtered (0.2 μm) to remove cell debris. The remaining kinases were produced in HEK-293 cells and subsequently tagged with DNA for qPCR detection.
(§3) Streptavidin-coated magnetic beads were treated with biotinylated small molecule ligands for 30 minutes at room temperature to generate affinity resins for kinase assays. The liganded beads were blocked with excess biotin and washed with blocking buffer (SeaBlock (Pierce), 1% BSA, 0.05% Tween 20, 1 mM DTT) to remove unbound ligand and to reduce non-specific phage binding. Binding reactions were assembled by combining kinases, liganded affinity beads, and test compounds in 1× binding buffer (20% SeaBlock, 0.17×PBS, 0.05% Tween 20, 6 mM DTT). Test compounds were prepared as 40× stocks in 100% DMSO and directly diluted into the assay. All reactions were performed in polypropylene 384-well plates in a final volume of 0.04 ml. […] The kinase concentration in the eluates was measured by qPCR. […]

EPHB6 = target: T2, EPHB6 (Homo sapiens, UniProt O15197); experiment: Kinome screen, EPHB6; type: binding; settings: screened at 1 μM
T2 construct: made in house; host or cells: E. coli BL21-derived host (T7 phage) or HEK-293 cells
Description: as §1, §2, §3

KIT = target: T3, KIT (Homo sapiens, UniProt P10721); experiment: Kinome screen, KIT; type: binding; settings: screened at 1 μM
T3 construct: made in house; host or cells: E. coli BL21-derived host (T7 phage) or HEK-293 cells
Description: as §1, §2, §3

CDK9 = target: T4, CDK9 (Homo sapiens, UniProt P50750); experiment: Kinome screen, CDK9; type: binding; settings: screened at 1 μM
T4 construct: made in house; host or cells: E. coli BL21-derived host (T7 phage) or HEK-293 cells
Description: as §1, §2, §3

SYK = target: T5, SYK (Homo sapiens, UniProt P43405); experiment: Kinome screen, SYK; type: binding; settings: screened at 1 μM
T5 construct: made in house; host or cells: E. coli BL21-derived host (T7 phage) or HEK-293 cells
Description: as §1, §2, §3

CSF1R = target: T6, CSF1R (Homo sapiens, UniProt P07333); experiment: Kinome screen, CSF1R; type: binding; settings: screened at 1 μM
T6 construct: made in house; host or cells: E. coli BL21-derived host (T7 phage) or HEK-293 cells
Description: as §1, §2, §3

[1] = tested on: BEAS-2B human lung epithelial cells; experiment: CellTiter-Glo cell viability/cytotoxicity assay; type: cell-based; settings: BEAS-2B cells; 48 h; 15% inhibition threshold
Description: A CellTiter-Glo luminescent cell viability/cytotoxicity assay was carried out in BEAS-2B human lung epithelial cells (ATCC) under the normal growth condition.
Cells were grown at 37° C. in a 5% CO2 humidified incubator in 50% DMEM/50% F-12 medium (Life Technologies) supplemented with 10% FBS (Hyclone), 100 U/mL penicillin, 100 μg/mL streptomycin (Life Technologies), and 2 mM GlutaMAX (Life Technologies). On day 1 of the assay, cells were seeded at a 500 cells/well density in white 384-well tissue culture plates (Corning) with 25 μL medium, and were allowed to adhere overnight in the incubator. On day 2 of the assay, 5 μL of medium containing dose-responses of test compounds was added, and incubated at 37° C. for 48 h. 30 μL of CellTiter-Glo detection solution (Promega) was subsequently added, mixed on an orbital shaker for 5 min, and incubated for additional 10 min before being read on the EnVision reader. Luminescence signals were recorded and percent DMSO control values were calculated.
For dose-response analysis, percent DMSO control data were plotted vs. compound concentrations to derive dose-response curves by line connecting each data point. The concentration at which each curve crosses the 15% inhibition threshold is defined as CC15.

ALK = target: T7, ALK (Homo sapiens, UniProt Q9UM73); experiment: Kinome screen, ALK; type: binding; settings: screened at 1 μM
T7 construct: made in house; host or cells: E. coli BL21-derived host (T7 phage) or HEK-293 cells
Description: as §1, §2, §3

PAK4 = target: T8, PAK4 (Homo sapiens, UniProt O96013); experiment: Kinome screen, PAK4; type: binding; settings: screened at 1 μM
T8 construct: made in house; host or cells: E. coli BL21-derived host (T7 phage) or HEK-293 cells
Description: as §1, §2, §3

[2] = tested on: IL-2 stimulated STAT5 phosphorylation in Tall-1 human T cell line; experiment: Inhibition of IL-2 stimulated pSTAT5 in Tall-1 T cells; type: cell-based; settings: AlphaLisa, read-out: pIC50, inhibition of IL-2 stimulated pSTAT5 (converted)
Description: The potency of test compounds for inhibition of interleukin-2 (IL-2) stimulated STAT5 phosphorylation was measured in the Tall-1 human T cell line (DSMZ) using AlphaLisa. Because IL-2 signals through JAK1/3, this assay provides a measure of JAK1/3 cellular potency.
Phosphorylated STAT5 was measured via the AlphaLISA SureFire Ultra pSTAT5 (Tyr694/699) kit (PerkinElmer). Human T cells from the Tall-1 cell line were cultured in a 37° C., 5% CO2 humidified incubator in RPMI (Life Technologies) supplemented with 15% Heat Inactivated Fetal Bovine Serum (FBS, Life Technologies), 2 mM Glutamax (Life Technologies), 25 mM HEPES (Life Technologies) and 1× Pen/Strep (Life Technologies). Compounds were serially diluted in DMSO and dispensed acoustically to empty wells. […] Phosphorylated STAT5 was measured via the pSTAT5 AlphaLisa kit (PerkinElmer). […] Luminescence was measured with excitation at 689 nm and emission at 570 nm using an EnVision plate r reader (PerkinElmer) under green filtered <100 lux light.
To determine the inhibitory potency of test compounds in response to IL-2, the average emission intensity of beads bound to pSTAT5 was measured in a human T cell line. IC50 values were determined from analysis of the inhibition curves of signal intensity versus compound concentration. Data are expressed as pIC50 (negative decadic logarithm IC50) values (mean±standard deviation).

T7 sequence (Q9UM73 19-1620): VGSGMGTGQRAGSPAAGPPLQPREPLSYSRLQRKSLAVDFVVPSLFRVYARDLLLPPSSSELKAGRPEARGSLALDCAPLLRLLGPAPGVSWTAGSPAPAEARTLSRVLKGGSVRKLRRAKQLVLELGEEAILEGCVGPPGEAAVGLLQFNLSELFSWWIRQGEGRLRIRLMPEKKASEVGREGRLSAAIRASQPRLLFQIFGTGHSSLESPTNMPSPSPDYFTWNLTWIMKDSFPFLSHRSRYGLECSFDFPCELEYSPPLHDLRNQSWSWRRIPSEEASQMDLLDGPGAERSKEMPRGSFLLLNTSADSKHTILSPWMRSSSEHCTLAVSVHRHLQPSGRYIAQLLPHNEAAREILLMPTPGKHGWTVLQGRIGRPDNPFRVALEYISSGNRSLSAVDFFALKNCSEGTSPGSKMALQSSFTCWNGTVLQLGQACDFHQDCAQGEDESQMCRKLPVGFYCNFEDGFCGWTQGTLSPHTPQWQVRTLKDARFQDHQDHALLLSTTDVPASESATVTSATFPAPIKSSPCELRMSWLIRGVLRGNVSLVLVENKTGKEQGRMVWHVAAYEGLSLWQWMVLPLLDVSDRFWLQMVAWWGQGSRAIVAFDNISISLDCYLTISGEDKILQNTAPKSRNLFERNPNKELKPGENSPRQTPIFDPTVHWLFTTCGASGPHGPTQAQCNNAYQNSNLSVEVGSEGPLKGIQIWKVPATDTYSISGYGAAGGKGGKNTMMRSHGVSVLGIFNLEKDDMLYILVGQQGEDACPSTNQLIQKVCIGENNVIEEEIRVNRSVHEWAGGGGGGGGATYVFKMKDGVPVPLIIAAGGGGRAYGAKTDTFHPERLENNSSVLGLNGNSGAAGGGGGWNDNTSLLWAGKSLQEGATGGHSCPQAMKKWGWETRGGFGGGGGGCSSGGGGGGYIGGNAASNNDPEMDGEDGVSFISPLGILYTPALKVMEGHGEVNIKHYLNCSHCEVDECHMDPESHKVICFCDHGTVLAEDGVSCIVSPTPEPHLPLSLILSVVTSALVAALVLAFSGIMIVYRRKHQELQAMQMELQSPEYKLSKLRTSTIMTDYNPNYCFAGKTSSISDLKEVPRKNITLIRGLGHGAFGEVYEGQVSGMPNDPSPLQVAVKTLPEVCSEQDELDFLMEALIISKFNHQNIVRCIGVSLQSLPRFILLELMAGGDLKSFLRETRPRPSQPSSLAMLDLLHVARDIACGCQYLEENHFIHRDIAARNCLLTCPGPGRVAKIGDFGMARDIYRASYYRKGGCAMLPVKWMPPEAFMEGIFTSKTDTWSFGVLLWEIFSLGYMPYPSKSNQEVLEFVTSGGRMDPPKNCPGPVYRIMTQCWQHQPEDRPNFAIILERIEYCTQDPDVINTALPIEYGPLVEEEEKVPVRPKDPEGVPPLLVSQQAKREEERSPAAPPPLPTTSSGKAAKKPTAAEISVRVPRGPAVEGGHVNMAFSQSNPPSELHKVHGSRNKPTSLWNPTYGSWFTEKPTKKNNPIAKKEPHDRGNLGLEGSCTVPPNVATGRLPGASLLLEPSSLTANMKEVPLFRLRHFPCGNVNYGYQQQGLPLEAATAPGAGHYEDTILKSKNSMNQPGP
T2 sequence (O15197 32-1021): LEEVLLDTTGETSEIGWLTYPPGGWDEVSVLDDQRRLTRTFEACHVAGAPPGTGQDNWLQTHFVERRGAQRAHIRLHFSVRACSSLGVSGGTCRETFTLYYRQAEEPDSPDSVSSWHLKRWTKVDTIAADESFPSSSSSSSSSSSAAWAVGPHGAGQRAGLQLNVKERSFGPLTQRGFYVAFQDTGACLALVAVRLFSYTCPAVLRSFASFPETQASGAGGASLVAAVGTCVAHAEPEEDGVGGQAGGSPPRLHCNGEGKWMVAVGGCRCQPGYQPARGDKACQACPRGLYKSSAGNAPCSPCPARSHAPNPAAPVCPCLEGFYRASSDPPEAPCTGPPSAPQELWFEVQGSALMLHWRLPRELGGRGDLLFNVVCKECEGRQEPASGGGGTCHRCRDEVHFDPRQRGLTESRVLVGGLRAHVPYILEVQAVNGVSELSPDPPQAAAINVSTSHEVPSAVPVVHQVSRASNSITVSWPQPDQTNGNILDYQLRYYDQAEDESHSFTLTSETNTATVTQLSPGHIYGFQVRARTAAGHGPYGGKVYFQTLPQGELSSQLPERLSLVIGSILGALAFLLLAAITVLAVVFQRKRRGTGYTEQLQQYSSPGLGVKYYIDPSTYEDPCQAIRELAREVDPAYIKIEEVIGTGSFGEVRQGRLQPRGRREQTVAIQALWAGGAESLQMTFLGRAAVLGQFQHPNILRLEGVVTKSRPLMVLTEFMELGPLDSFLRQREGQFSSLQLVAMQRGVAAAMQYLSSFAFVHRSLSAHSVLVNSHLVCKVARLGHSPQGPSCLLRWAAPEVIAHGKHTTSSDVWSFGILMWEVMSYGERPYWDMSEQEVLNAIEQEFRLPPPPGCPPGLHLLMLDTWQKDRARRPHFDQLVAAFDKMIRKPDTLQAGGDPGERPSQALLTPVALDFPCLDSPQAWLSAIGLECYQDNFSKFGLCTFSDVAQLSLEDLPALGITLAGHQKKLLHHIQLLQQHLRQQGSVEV
T4 sequence (P50750 whole entry): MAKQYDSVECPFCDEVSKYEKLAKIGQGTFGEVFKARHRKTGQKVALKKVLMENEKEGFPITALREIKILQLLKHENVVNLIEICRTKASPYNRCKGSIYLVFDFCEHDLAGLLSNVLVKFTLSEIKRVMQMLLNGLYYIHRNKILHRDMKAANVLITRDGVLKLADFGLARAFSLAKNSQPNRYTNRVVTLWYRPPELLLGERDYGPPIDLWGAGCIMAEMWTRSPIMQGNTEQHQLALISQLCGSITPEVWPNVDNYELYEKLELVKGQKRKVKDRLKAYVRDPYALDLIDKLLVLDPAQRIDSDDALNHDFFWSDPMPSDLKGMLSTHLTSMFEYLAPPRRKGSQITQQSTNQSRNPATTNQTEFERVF
T6 sequence (P07333 20-972): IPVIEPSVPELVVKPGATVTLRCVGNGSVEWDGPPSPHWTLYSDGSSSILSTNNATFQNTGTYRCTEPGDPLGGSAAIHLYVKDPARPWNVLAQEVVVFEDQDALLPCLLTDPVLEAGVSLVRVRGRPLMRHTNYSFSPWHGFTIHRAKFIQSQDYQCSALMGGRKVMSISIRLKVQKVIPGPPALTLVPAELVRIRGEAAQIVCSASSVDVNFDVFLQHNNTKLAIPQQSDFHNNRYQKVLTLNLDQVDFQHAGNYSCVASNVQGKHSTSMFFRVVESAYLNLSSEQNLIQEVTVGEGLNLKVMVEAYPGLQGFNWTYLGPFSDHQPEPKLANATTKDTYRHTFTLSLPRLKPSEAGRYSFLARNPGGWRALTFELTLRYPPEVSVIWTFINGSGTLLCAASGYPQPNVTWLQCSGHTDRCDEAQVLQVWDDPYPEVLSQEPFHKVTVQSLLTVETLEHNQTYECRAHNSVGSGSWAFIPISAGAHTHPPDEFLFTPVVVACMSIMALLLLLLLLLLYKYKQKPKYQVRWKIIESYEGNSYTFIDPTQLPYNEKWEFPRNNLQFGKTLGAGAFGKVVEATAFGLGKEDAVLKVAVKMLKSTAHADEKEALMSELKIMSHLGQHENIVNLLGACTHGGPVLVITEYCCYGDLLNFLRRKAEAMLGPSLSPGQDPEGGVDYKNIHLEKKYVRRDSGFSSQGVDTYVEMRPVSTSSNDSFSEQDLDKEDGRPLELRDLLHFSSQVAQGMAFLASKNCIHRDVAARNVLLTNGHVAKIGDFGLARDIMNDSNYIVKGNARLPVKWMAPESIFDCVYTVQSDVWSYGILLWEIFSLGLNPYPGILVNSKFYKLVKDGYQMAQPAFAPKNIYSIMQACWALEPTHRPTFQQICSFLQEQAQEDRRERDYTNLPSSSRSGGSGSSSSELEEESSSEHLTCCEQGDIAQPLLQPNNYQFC
T3 sequence (P10721 26-976): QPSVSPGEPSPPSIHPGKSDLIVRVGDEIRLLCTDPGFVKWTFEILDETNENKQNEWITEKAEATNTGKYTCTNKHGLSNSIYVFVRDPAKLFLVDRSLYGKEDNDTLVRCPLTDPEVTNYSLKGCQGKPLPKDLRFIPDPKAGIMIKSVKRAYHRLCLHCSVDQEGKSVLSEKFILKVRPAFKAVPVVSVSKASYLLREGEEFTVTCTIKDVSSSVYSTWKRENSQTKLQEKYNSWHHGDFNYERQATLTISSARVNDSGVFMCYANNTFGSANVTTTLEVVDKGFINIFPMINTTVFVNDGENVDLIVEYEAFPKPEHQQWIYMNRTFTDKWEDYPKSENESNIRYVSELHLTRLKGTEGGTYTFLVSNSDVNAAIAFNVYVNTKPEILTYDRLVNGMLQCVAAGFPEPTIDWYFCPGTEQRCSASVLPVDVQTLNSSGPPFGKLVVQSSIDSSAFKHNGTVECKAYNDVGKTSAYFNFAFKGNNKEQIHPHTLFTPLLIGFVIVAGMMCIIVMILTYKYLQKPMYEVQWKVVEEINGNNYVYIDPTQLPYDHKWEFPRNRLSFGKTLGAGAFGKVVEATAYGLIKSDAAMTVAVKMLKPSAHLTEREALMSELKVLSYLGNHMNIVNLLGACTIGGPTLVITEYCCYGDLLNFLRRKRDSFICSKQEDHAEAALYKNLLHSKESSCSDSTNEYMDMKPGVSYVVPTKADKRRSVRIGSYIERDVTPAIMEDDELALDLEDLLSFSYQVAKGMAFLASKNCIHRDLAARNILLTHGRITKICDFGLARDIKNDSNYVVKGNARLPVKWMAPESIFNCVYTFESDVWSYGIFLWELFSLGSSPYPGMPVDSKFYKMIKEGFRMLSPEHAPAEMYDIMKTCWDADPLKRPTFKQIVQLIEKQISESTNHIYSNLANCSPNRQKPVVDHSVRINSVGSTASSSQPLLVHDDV

CCc1cc(O)c(F)cc1-c1cc(F)c2c(-c3nc4c([nH]3)CCN(C(=O)[C@]35C[C@H]3CCN5)C4)n[nH]c2c1 [Compound 1, (1S,5R)-2-azabicyclo[3.1.0]hexan-1-yl(2-(6-(2-ethyl-5-fluoro-4-hydroxyphenyl)-4-fluoro-1H-indazol-3-yl)-6,7-dihydro-3H-imidazo[4,5-c]pyridin-5(4H)-yl)methanone]
inhibition at 1 µM (CSNK1D): 25%
inhibition at 1 µM (EPHB6): 85%
inhibition at 1 µM (KIT): 83%
inhibition at 1 µM (CDK9): 13%
inhibition at 1 µM (SYK): 44%
inhibition at 1 µM (CSF1R): 98%
CC15 [1]: > 10 µM
pCC15 [1]: < 5
inhibition at 1 µM (ALK): 79%
inhibition at 1 µM (PAK4): 41%
IC50 [2]: 0.0158 µM
